*1 amine or outer side, *2 acyl side, *3 side chain or, on linkers, in order; H or OH if unused. Where a SMILES comes first, the peptide text is derived from it. Bridges are numbered along the chain shown (N, C = ends). [ ]: non-standard residue; d: D form. ξ: configuration not given here. X2 = CN([C@@H](Cc1c[nH]c2cc(Cl)c(O)cc12)C(=O)[*:2])[*:1]; X1 = O=C([C@H](Cc1c[nH]c2cc(Cl)c(O)cc12)N[*:1])[*:2]; Ile(3ξ) = CCC(C)[C@H](N)C(=O)O; NMeL = CN[C@@H](CC(C)C)C(=O)O; CO = O=C([*:1])[*:2]
Molecular target: T1, carboxypeptidase U (Homo sapiens, UniProt Q96IY4)
T1 sequence (Q96IY4 115-423): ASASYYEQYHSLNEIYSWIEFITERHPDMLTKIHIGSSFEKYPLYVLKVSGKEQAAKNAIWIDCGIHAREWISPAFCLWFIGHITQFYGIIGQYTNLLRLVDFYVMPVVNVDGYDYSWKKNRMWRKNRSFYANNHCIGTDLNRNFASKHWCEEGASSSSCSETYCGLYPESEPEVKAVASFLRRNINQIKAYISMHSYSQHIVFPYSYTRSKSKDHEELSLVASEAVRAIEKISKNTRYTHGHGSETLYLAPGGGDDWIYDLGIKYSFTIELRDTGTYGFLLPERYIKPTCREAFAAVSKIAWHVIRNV
Experiment: carboxypeptidase U inhibition assay (Hendriks et al., Clin. Chem. 1985), substrate concentration 4 mM
Type: biochemical
Conditions: substrate concentration of 4 mM
Description: The inhibiting effect of the compounds of the present invention was estimated using the assay described in: Dirk Hendriks, Simon Scharpé and Marc van Sande, Clinical Chemistry, 31, 1936-1939 (1985); and Wei Wang, Dirk F. Hendriks, Simon S. Scharpé, The Journal of Biological Chemistry, 269, 15937-15944 (1994), using a substrate concentration of 4 mM.
The activities of certain Examples in the assay described in: Dirk Hendriks, Simon Sharpé and Marc van Sande, Clinical Chemistry, 31, 1936-1939 (1985), using a substrate concentration of 4 mM, are presented in Table I below.

Row | Structure (SMILES) | IC50
1 | CC(C)C[C@@H]1NC(=O)[C@H](C)NC(=O)[C@H](NC(=O)N[C@@H](CCCNC(=N)N)C(=O)O)CCCCNC(=O)[C@H](Cc2c[nH]c3cc(Cl)c(O)cc23)NC(=O)[C@H](CC(C)C)N(C)C1=O [Compound 2] ({Arg-CO}-[dK]AL[NMeL][X1]; lactam 1-C) | 100 nM
2 | CCC(C)[C@H](NC(=O)N[C@@H]1CCCCNC(=O)[C@H](Cc2ccccc2)NC(=O)[C@H](Cc2c[nH]c3cc(Cl)c(O)cc23)N(C)C(=O)[C@H](CC(C)C)NC(=O)[C@H](C(C)CC)NC1=O)C(=O)O (some centres unmarked) [Compound 8] ({Ile(3ξ)-CO}-[dK][Ile(3ξ)]L[X2]F; lactam 1-C) | 2500 nM

Reference: patent publication US20080039376A1, “Use of Cyclic Anabaenopeptin-type Peptides for the Treatment of a Condition Wherein Inhibition of Carboxypeptidase U is Beneficial, Novel Anabaenopeptin Derivatives and Intermediates Thereof” (A[…], priority 2003, published 2008)
